Values belong to the compound of their own block, whether it stands above or below them. The source made the active and inactive calls.
How the values were obtained:
[1] = P. falciparum Dd2 growth inhibitors, dose response, SYBR Green, cherry-picked samples (AID 1159567); type: functional, cell-based
[2] = inhibitors of clade B AD8 Env fusion, dose response, cell-based, cherry-pick (AID 652062); type: functional;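 further: luciferase signal from cell-cell fusion driven by HIV-1 clade B AD8 Env; potency is for inhibitors of fusion seen as a drop in luminescence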
[3] = CEM21 lymphoblast cell cytotoxicity, dose response, cytotoxicity control for viral fusion inhibitor project, CellTiter-Glo luminescence, cherry-picked (AID 652042); type: functional, cell-based;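 further: potency for signal decrease meaning cytotoxicity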
[4] = HepG2 cell cytotoxicity, dose response, cytotoxicity control, cherry-picked samples (AID 1159577); type: functional, cell-based
[5] = HIV Env cell-cell fusion inhibitors, dose response, HIV entry, plate reader, dry powder (AID 687023); type: functional, cell-based
[6] = inhibitors of HIV Env-driven cell fusion, dose response, cherry-pick (AID 652057); type: functional, cell-based
[7] = PAX5 activity inhibitors, dose response, selectivity assay for PAX8 inhibitor project, cell-based, plate reader, dry powder samples (AID 743047); type: functional;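 further: HEK293 cells carrying a Pax5 driven CD19 promoter luciferase reporter; potency of inhibitors that lower reporter luminescence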
[8] = HEK293T cytotoxicity, dose response, cytotoxicity control for miR-122 modulator project, cell-based, activator set, cherry-pick (AID 720690); type: functional;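 further: HEK293T human cells scored for general mammalian cytotoxicity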
[9] = cytotoxicity in OVCAR8 ovarian cancer cells, dose response, PAX8 project, cell-based, plate reader, dry powder samples (AID 743197); type: functional; conditions: OVCAR-8
[10] = cytotoxicity in COV434 cells, dose response, cytotoxicity control for PAX8 inhibitor project, cell-based, plate reader, dry powder, SA7 (AID 743145); type: functional
[11] = inhibitors of CMV-promoter luciferase reporter, dose response, counter-screen for Pax8 inhibitor project, cell-based, HEK293, luminescence, dry powder (AID 743020); type: functional
[12] = cytotoxicity in OV-90 ovarian cancer cells, dose response, PAX8 inhibitor project, cell-based, plate reader, dry powder, SA8 (AID 743149); type: functional
[13] = PAX2 cell-based inhibition, dose response, selectivity assay for PAX8 inhibitor project, plate reader, dry powder samples (AID 743048); type: functional;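 further: HEK293 cells carrying a WT1 promoter luciferase reporter driven by expressed Pax2; potency is for inhibition of Pax2 driven reporter signal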
[14] = molecular target: Paired box protein Pax-8 (Homo sapiens, UniProt Q06710); test: inhibitors of PAX8-driven TPO luciferase reporter, dose response, RMG-I cells, cherry-pick (AID 687027); type: functional, cell-based;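 further: luciferase reporter driven by Pax8 target thyroperoxidase promoter measured by SteadyGlo luminescence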
[15] = cytotoxicity dependent on PAX8, dose response, cell-based, plate reader, dry powder (AID 743049); type: functional
[16] = molecular target: NAD-dependent protein deacylase sirtuin-5, mitochondrial (Homo sapiens, UniProt Q9NXA8); test: SIRT5 deacylase inhibitors, dose response, biochemical, fluorescence imaging, cherry-pick, set 6 (AID 720597)
[17] = T. cruzi intracellular amastigote growth inhibition, dose response, imaging, CA-I/72 strain, bovine embryo skeletal muscle, dry powder (AID 651885); type: functional, cell-based
[18] = T. cruzi growth inhibition in host cells, dose response, cell-based, plate reader, dry powder, set 2 (AID 652275); type: functional
[19] = growth inhibition of intracellular T. cruzi, dose response, cell-based, plate reader, dry powder samples (AID 651845); type: functional
[20] = molecular target: T1, Insulin-degrading enzyme (Homo sapiens, UniProt P14735); test: Dose Response: Fluorescence polarization-based cell-based high throughput dose response assay for inhibitors of insulin-degrading enzyme (IDE). [Related pubchem assays: 434962 (Primary screen (IDE inhibitors in singlicate)), 449730 (Counterscreen (Cytotoxicity in triplicate)), 435028 (Confirmation (IDE inhibitors in triplicate)), 434984 (Summary …; type: functional
T1 sequence (P14735 whole entry): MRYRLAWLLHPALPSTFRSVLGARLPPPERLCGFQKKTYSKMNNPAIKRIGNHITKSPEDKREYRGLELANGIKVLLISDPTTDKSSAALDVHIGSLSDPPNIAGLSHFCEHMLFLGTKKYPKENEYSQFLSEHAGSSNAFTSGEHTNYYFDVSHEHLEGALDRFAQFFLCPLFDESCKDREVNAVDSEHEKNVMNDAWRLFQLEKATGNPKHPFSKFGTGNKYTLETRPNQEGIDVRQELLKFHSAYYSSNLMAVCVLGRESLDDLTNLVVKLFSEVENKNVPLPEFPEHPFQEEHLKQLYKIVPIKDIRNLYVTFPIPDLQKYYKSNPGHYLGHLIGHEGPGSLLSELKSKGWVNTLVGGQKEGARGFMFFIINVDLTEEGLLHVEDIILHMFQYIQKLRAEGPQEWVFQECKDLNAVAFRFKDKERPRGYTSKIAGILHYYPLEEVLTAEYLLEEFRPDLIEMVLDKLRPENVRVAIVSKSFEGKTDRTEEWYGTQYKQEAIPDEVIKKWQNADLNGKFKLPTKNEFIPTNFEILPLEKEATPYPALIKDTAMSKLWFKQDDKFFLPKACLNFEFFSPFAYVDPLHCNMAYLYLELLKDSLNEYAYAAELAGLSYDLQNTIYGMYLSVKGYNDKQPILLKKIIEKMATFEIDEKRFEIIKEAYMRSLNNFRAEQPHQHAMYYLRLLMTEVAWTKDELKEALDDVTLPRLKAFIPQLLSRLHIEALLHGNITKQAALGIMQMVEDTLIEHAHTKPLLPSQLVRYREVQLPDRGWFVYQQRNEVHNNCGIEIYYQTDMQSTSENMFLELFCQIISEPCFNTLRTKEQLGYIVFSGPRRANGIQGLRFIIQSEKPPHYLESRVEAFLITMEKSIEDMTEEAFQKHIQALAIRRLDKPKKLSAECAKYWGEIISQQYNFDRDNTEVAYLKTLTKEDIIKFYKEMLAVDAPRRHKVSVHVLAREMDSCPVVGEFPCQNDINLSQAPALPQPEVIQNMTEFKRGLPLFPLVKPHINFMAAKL

[21] = Counterscreen for IDE inhibitors: Luminescence-based cell-based high throughput dose response assay to identify compounds that are cytotoxic to HEK cells. [Related pubchem assays: 434962 (Primary screen (IDE inhibitors in singlicate)), 449730 (Counterscreen (Cytotoxicity in triplicate)), 435028 (Confirmation (IDE inhibitors in triplicate)) …; type: functional; conditions: HEK293
[22] = molecular target: T2, Aminopeptidase N (Plasmodium falciparum FcB1/Columbia, UniProt O96935); test: P. falciparum M1AAP inhibitors, biochemical, fluorogenic H-Leu-NHMec substrate, 1536-well (AID 1445); set-up: species or system Plasmodium falciparum 3D7, 3D7
T2 sequence (O96935 whole entry): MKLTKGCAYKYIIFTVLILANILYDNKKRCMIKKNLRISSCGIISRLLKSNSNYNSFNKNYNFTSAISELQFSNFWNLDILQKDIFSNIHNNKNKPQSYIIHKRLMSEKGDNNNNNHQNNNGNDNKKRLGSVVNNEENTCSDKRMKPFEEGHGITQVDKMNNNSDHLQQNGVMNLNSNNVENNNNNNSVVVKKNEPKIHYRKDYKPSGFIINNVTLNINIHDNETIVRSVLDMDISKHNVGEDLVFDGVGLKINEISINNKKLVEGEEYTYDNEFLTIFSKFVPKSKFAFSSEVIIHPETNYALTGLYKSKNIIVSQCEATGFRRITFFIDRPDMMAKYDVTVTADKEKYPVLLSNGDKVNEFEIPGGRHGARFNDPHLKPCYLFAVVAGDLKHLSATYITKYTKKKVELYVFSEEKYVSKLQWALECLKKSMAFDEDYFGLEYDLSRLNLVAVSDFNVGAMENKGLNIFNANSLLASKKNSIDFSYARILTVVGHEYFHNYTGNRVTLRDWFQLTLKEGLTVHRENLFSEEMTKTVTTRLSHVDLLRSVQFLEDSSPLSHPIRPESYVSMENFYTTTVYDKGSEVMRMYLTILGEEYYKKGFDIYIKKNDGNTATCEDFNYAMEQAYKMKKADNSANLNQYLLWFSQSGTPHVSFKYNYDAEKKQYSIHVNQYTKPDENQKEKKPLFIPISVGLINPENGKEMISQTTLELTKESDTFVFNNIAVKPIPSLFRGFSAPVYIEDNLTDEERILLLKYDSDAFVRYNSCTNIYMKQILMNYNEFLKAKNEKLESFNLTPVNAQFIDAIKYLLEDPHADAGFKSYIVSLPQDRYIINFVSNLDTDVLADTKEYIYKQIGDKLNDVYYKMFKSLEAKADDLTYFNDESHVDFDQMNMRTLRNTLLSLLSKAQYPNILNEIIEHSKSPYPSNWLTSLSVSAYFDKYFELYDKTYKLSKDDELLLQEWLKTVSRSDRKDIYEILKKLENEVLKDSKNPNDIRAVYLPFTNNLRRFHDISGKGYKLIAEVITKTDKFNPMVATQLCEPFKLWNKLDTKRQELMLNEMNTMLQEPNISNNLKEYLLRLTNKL

[23] = molecular target: Transitional endoplasmic reticulum ATPase (Homo sapiens, UniProt P55072); test: p97 ATPase inhibitors, dose response, biochemical (AID 1534)
[24] = molecular target: T3, Histone-lysine N-methyltransferase NSD2 (Homo sapiens, UniProt O96028); type: biochemical
T3 sequence (O96028 whole entry): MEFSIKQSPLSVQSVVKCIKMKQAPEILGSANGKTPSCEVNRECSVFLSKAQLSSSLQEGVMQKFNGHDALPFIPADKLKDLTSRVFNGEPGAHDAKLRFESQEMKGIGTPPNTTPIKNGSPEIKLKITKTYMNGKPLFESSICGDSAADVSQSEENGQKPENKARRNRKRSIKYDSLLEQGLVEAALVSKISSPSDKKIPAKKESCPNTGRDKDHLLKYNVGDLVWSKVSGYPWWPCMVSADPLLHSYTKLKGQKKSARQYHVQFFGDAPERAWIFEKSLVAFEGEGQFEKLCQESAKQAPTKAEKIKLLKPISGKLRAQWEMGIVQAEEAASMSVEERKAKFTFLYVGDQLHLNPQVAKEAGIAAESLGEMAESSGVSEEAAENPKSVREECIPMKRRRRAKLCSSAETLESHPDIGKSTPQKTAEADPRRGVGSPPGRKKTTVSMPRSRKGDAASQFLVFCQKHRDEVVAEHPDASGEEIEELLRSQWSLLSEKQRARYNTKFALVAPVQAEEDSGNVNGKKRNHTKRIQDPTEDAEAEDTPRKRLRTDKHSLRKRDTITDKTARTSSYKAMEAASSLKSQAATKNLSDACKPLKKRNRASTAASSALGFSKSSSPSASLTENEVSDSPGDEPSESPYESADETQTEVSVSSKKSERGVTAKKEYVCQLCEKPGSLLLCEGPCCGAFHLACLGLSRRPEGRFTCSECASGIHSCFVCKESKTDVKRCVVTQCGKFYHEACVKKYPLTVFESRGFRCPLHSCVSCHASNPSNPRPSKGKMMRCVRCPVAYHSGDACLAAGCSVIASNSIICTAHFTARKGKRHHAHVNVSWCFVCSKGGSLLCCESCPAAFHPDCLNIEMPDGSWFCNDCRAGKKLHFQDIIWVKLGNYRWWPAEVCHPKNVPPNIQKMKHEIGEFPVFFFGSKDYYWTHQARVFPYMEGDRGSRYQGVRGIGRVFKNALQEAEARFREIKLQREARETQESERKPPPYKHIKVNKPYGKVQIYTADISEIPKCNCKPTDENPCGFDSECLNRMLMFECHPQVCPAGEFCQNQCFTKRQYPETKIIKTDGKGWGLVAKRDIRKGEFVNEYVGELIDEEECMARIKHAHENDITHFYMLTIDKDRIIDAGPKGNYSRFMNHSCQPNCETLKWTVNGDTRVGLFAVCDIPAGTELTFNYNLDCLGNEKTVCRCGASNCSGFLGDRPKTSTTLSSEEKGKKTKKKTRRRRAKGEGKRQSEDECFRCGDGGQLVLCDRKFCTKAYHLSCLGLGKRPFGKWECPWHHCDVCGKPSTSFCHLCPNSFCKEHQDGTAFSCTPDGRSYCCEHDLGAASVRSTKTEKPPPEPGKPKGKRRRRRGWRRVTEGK

[25] = molecular target: Kallikrein-7 (Homo sapiens, UniProt P49862); test: Fluorescence Intensity-based biochemical primary high throughput dose response assay to identify activators of kallikrein-7 (K7) zymogen.
[26] = molecular target: Transitional endoplasmic reticulum ATPase (Homo sapiens, UniProt P55072, C522A); test: C522A mutant p97 ATPase inhibitors, dose response, counter-screen for p97 inhibitor project, biochemical, luminescence (AID 1544)
Transitional endoplasmic reticulum ATPase (Homo sapiens, UniProt P55072, C522A), sequence (P55072 2-806 C522A limits assumed): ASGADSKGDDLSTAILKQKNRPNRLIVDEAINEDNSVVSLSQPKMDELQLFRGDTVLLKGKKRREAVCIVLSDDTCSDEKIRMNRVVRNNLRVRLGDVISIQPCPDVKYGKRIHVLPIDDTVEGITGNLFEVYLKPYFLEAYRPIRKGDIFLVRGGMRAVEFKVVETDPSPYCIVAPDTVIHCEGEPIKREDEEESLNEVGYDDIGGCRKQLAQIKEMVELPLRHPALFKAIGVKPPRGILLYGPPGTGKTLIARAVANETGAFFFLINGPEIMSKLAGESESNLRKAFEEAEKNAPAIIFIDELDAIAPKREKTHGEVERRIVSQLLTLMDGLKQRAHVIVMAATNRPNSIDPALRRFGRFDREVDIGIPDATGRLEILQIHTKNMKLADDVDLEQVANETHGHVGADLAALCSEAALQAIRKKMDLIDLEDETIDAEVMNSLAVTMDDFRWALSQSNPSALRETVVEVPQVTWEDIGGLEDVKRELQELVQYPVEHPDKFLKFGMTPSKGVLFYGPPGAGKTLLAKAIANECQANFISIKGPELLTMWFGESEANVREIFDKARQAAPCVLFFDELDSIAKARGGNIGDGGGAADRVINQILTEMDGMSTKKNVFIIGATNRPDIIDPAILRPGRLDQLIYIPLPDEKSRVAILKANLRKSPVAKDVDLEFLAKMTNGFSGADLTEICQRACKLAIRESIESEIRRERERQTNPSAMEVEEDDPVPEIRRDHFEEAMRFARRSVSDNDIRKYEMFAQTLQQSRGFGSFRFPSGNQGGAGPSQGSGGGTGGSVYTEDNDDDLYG

Kallikrein-7, sequence (P49862 whole entry): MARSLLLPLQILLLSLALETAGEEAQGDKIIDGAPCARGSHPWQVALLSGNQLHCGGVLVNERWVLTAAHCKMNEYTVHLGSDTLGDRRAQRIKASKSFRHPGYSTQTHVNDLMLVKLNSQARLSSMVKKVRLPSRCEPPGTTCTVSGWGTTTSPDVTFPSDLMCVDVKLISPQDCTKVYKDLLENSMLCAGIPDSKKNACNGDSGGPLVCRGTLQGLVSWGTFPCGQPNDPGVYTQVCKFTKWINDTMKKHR
NAD-dependent protein deacylase sirtuin-5, mitochondrial, sequence (Q9NXA8 whole entry): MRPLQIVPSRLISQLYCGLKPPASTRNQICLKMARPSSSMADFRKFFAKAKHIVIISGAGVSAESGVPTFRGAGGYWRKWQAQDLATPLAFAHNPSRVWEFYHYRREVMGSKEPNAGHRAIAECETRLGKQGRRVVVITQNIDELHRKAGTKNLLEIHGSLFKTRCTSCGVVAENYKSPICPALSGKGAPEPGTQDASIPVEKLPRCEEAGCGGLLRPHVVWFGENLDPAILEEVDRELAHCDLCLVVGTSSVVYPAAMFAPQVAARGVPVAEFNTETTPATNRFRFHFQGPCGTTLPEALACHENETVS
Paired box protein Pax-8, sequence (Q06710 whole entry): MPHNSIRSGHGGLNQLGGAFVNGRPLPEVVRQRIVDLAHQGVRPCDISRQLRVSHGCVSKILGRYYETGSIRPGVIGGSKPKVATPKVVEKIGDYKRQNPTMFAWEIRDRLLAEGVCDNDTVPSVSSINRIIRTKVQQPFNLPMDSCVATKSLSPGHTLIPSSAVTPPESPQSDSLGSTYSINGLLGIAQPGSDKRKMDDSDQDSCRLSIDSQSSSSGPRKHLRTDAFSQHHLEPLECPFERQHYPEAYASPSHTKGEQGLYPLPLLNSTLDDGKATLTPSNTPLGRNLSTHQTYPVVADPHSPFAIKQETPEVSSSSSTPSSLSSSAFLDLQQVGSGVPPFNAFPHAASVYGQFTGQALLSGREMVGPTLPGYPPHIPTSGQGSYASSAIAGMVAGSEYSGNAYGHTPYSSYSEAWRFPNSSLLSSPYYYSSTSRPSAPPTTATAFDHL
Transitional endoplasmic reticulum ATPase (Homo sapiens, UniProt P55072), sequence (P55072 whole entry): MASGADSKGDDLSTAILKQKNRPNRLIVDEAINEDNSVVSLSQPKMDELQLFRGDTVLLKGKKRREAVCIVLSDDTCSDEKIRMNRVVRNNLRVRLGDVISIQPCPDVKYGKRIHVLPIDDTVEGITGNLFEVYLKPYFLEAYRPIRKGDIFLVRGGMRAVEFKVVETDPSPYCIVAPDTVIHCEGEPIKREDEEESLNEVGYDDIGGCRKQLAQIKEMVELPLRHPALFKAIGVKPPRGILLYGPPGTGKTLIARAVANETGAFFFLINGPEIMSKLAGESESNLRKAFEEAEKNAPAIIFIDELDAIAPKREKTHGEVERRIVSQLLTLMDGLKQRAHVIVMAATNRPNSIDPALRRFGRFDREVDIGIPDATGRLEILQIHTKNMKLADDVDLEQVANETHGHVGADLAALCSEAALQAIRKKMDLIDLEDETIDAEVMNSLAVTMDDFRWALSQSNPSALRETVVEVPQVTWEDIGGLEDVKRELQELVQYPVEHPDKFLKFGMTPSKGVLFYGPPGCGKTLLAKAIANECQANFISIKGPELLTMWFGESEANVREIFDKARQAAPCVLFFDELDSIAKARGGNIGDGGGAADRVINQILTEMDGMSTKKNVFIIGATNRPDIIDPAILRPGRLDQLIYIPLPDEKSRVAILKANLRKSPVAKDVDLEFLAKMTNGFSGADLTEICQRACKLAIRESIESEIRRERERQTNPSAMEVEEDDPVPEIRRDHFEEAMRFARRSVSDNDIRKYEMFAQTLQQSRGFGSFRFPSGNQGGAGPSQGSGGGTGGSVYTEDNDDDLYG

SMILES: CO[C@@H]1CN(C)C(=O)c2ccc(NC(=O)Nc3cccc(F)c3)cc2OC[C@@H](C)N(C(=O)Nc2cccc(F)c2)C[C@H]1C
AC50 [1]: 3.07 µM (active)
AC50 [2]: 61 µM (active)
AC50 [3]: 61.4 µM (active)
AC50 [4]: > 42 µM (inactive)
AC50 [5]: 8.94 µM (active)
AC50 [6]: 3.17 µM (active)

SMILES: C[C@H](CO)N1C[C@H](C)[C@@H](CN(C)Cc2ccc(C(F)(F)F)cc2)Oc2ccc(NS(=O)(=O)c3ccc(Cl)cc3)cc2CC1=O
AC50 [7]: 29.8 µM (active)
AC50 [8]: 12.9 µM (active)
AC50 [9]: > 70 µM (inactive)
AC50 [10]: 37.7 µM (active)
AC50 [11]: 41.8 µM (active)
AC50 [12]: 39 µM (active)
AC50 [13]: 28.6 µM (active)
AC50 [14]: 11.2 µM (active)
AC50 [15]: 21.9 µM (active)

AC50 [16]: > 30 µM (inactive)
SMILES: CO[C@H]1CN(C)C(=O)c2ccc(NC(=O)C3CC3)cc2OC[C@@H](C)N(C(=O)c2ccccc2F)C[C@H]1C

SMILES: C[C@@H]1CN([C@@H](C)CO)C(=O)c2cccc(NC(=O)c3ccncc3)c2O[C@H]1CN(C)Cc1cccc(Cl)c1
IC50 [17]: 0.0074 µM (active)
AC50 [18]: 0.0169 µM (active)
AC50 [19]: 0.0706 µM (active)

SMILES: N=C1/C(=C\c2coc3ccccc3c2=O)C(=O)N=C2SC(c3ccncc3)=NN12
IC50 [20]: > 18.6 µM (not active)
IC50 [21]: 30.1 µM (not active)
IC50 [22]: 44 µM (active)
IC50 [23]: 11.1 µM (not active)
AC50 [24]: 18.8 µM (active)
EC50 [25]: > 7.72 µM (active)
IC50 [26]: 9.26 µM (active)

Source: ChEMBL document CHEMBL1201862, “PubChem BioAssay data set” (2004)
